{"source": "PubChem BioAssay AID850", "about": "(SRMLSC, 2007)", "key": {"[1]": {"experiment": "yeast lifespan-shortening chemical project counter-assay, dose-response inhibition of growth under permissive conditions (AID 850);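 also: growth read as optical density after one day of incubation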", "details": "Saccharomyces cerevisiae growth inhibition, permissive control, measured here: maximum growth inhibition, stronger effect = higher value"}, "[2]": {"system": "Saccharomyces cerevisiae growth inhibition, permissive control", "experiment": "yeast lifespan-shortening chemical project counter-assay, dose-response inhibition of growth under permissive conditions (AID 850)"}}, "note": "Activity calls are given as the source filed them. No rule for the calls is given here."}
{"smiles": "Cc1oc(-c2cccs2)nc1CS(=O)CC(=O)NC1CCCCCC1", "note": "(stereo not given)", "values": [{"measurement": "inhibition", "setting": "[1]; at 6.25 µM", "result": 18.9, "unit": "%"}, {"measurement": "IC50", "setting": "[2]", "result": "> 100 µM (inactive)"}]}
{"smiles": "Oc1c(Br)cc(Cl)cc1C=Nc1ccccc1Br", "values": [{"measurement": "inhibition", "setting": "[1]; at 50 µM", "result": 100, "unit": "%"}, {"measurement": "IC50", "setting": "[2]", "result": 7.27, "unit": "µM"}]}
{"smiles": "O=c1oc2ccccc2c(N2CCCC2)c1CN1CCCC1", "values": [{"measurement": "inhibition", "setting": "[1]; at 12.5 µM", "result": 11.7, "unit": "%"}, {"measurement": "IC50", "setting": "[2]", "result": "> 100 µM (inactive)"}]}
{"smiles": "CN(C)CCNC=C(C(=O)Nc1ccc(Cl)cc1Cl)C(=O)Nc1ccc(Cl)cc1Cl", "values": [{"measurement": "inhibition", "setting": "[1]; at 25 µM", "result": 101, "unit": "%"}, {"measurement": "IC50", "setting": "[2]", "result": 18.6, "unit": "µM"}]}
{"smiles": "Cc1nnc(C)n1/N=C/c1cc(Br)cc(Br)c1O", "values": [{"measurement": "inhibition", "setting": "[1]; at 50 µM", "result": 99.2, "unit": "%"}, {"measurement": "IC50", "setting": "[2]", "result": 0.324, "unit": "µM"}]}
{"smiles": "CCC(C)NC(=O)C1CCN(S(=O)(=O)c2cccc3cccnc23)CC1", "note": "(stereo not given)", "values": [{"measurement": "inhibition", "setting": "[1]; at 50 µM", "result": 12.2, "unit": "%"}, {"measurement": "IC50", "setting": "[2]", "result": "> 100 µM (inactive)"}]}
{"smiles": "CCCCOc1ccc(C(=O)NNC(=S)NC(=O)CC)cc1", "values": [{"measurement": "inhibition", "setting": "[1]; at 50 µM", "result": 81.6, "unit": "%"}, {"measurement": "IC50", "setting": "[2]", "result": 24.8, "unit": "µM"}]}
{"smiles": "S=C1SCN(Cc2ccccn2)CN1Cc1ccco1", "values": [{"measurement": "inhibition", "setting": "[1]; at 50 µM", "result": 55.7, "unit": "%"}, {"measurement": "IC50", "setting": "[2]", "result": 43.4, "unit": "µM"}]}
{"smiles": "Cn1c(/C=C/c2ccc([N+](=O)[O-])o2)nc2ccccc2c1=O", "values": [{"measurement": "inhibition", "setting": "[1]; at 50 µM", "result": 47.5, "unit": "%"}, {"measurement": "IC50", "setting": "[2]", "result": 51.4, "unit": "µM"}]}
{"smiles": "Oc1c(CN2CCN(c3ccc(F)cc3)CC2)cc(Cl)c2cccnc12", "values": [{"measurement": "inhibition", "setting": "[1]; at 50 µM", "result": 100, "unit": "%"}, {"measurement": "IC50", "setting": "[2]", "result": 12.2, "unit": "µM"}]}
{"smiles": "Cc1cc(C(=O)COC(=O)c2ccc[nH]c2=O)c(C)n1-c1ccccc1", "values": [{"measurement": "inhibition", "setting": "[1]; at 50 µM", "result": 67.1, "unit": "%"}, {"measurement": "IC50", "setting": "[2]", "result": 26.9, "unit": "µM"}]}
{"smiles": "O=C(/C(=C/O)N=Nc1ccccc1)c1ccncc1", "values": [{"measurement": "inhibition", "setting": "[1]; at 50 µM", "result": 100, "unit": "%"}, {"measurement": "IC50", "setting": "[2]", "result": 13.3, "unit": "µM"}]}
{"smiles": "COc1ccccc1N1CCN(C(CNC(=O)c2ccco2)c2cccnc2)CC1", "note": "(stereo not given)", "values": [{"measurement": "inhibition", "setting": "[1]; at 50 µM", "result": 18.3, "unit": "%"}, {"measurement": "IC50", "setting": "[2]", "result": "> 100 µM (inactive)"}]}
{"smiles": "c1cnc2c(c1)ccc1cccnc12", "values": [{"measurement": "inhibition", "setting": "[1]; at 50 µM", "result": 100, "unit": "%"}, {"measurement": "IC50", "setting": "[2]", "result": 8.23, "unit": "µM"}]}
{"smiles": "CC(C)(C)c1ccc(NC(=O)COC(=O)c2ccc([N+](=O)[O-])s2)cc1", "values": [{"measurement": "inhibition", "setting": "[1]; at 50 µM", "result": 56.3, "unit": "%"}, {"measurement": "IC50", "setting": "[2]", "result": 49.5, "unit": "µM"}]}
{"smiles": "CCCCCC/C(=N/O)c1ccccn1", "values": [{"measurement": "inhibition", "setting": "[1]; at 50 µM", "result": 99.6, "unit": "%"}, {"measurement": "IC50", "setting": "[2]", "result": 9.77, "unit": "µM"}]}
{"smiles": "O=S(=O)(Cc1ccccc1)NCc1cccnc1", "values": [{"measurement": "inhibition", "setting": "[1]; at 12.5 µM", "result": 28.2, "unit": "%"}, {"measurement": "IC50", "setting": "[2]", "result": "> 100 µM (inactive)"}]}
{"smiles": "Cc1ccc2nc(-c3ccc(NS(C)(=O)=O)cc3)cc(-c3ccccc3)c2c1", "values": [{"measurement": "inhibition", "setting": "[1]; at 50 µM", "result": 22.2, "unit": "%"}, {"measurement": "IC50", "setting": "[2]", "result": "> 100 µM (inactive)"}]}
{"smiles": "COc1ccc(OCc2nnc3n2N=C(c2ccc(OC)cc2)CS3)cc1", "values": [{"measurement": "inhibition", "setting": "[1]; at 0.781 µM", "result": 20.9, "unit": "%"}, {"measurement": "IC50", "setting": "[2]", "result": "> 100 µM (inactive)"}]}
{"smiles": "CC1/C(=N/O)CC(c2ccccc2)N(C)C1c1ccccc1", "note": "(stereo not given)", "values": [{"measurement": "inhibition", "setting": "[1]; at 25 µM", "result": 94.8, "unit": "%"}, {"measurement": "IC50", "setting": "[2]", "result": "< 0.098", "unit": "µM"}]}
{"smiles": "CCCCc1ccc(NC(=S)Nc2ccc(Nc3ccc(OC)cc3)cc2)cc1", "values": [{"measurement": "inhibition", "setting": "[1]; at 50 µM", "result": 16.8, "unit": "%"}, {"measurement": "IC50", "setting": "[2]", "result": "> 100 µM (inactive)"}]}
{"smiles": "CCc1nc2ccccc2c(=O)n1NC(=O)c1c(O)c2cccc3c2n(c1=O)CCC3", "values": [{"measurement": "inhibition", "setting": "[1]; at 50 µM", "result": 2.73, "unit": "%"}, {"measurement": "IC50", "setting": "[2]", "result": "> 100 µM (inactive)"}]}
{"smiles": "CCCCCCCCCCCCCCCC[n+]1cccc2ccccc21", "values": [{"measurement": "inhibition", "setting": "[1]; at 50 µM", "result": 100, "unit": "%"}, {"measurement": "IC50", "setting": "[2]", "result": 0.701, "unit": "µM"}]}
{"smiles": "CCC(=O)c1c(O)n(C2CCCCCC2)c(=O)[nH]c1=O", "values": [{"measurement": "inhibition", "setting": "[1]; at 50 µM", "result": 91, "unit": "%"}, {"measurement": "IC50", "setting": "[2]", "result": 29, "unit": "µM"}]}
{"smiles": "Oc1ccc(-c2csc(-c3ccccc3)n2)cc1O", "values": [{"measurement": "inhibition", "setting": "[1]; at 50 µM", "result": 99.8, "unit": "%"}, {"measurement": "IC50", "setting": "[2]", "result": 21.9, "unit": "µM"}]}
{"smiles": "Nc1nc2sc3c(c2c(=O)s1)CCCC3", "values": [{"measurement": "inhibition", "setting": "[1]; at 0.195 µM", "result": 24.4, "unit": "%"}, {"measurement": "IC50", "setting": "[2]", "result": "> 100 µM (inactive)"}]}
{"smiles": "CCC(C)NC(=O)CS(=O)Cc1nc(-c2ccccc2C)oc1C", "note": "(stereo not given)", "values": [{"measurement": "inhibition", "setting": "[1]; at 1.563 µM", "result": 23.5, "unit": "%"}, {"measurement": "IC50", "setting": "[2]", "result": "> 100 µM (inactive)"}]}
{"smiles": "CC(=O)N1c2ccccc2C2(O)N=C(C)SC12", "note": "(stereo not given)", "values": [{"measurement": "inhibition", "setting": "[1]; at 50 µM", "result": 16, "unit": "%"}, {"measurement": "IC50", "setting": "[2]", "result": "> 100 µM (inactive)"}]}
{"smiles": "COc1ccc2c(c1)c1nnc(SC)nc1n2C", "values": [{"measurement": "inhibition", "setting": "[1]; at 50 µM", "result": 63.9, "unit": "%"}, {"measurement": "IC50", "setting": "[2]", "result": 48.3, "unit": "µM"}]}
{"smiles": "CCOc1cc(C2CC(=O)N3CN(C4CCCCC4)CSC3=C2C#N)ccc1O", "note": "(stereo not given)", "values": [{"measurement": "inhibition", "setting": "[1]; at 0.781 µM", "result": 8.66, "unit": "%"}, {"measurement": "IC50", "setting": "[2]", "result": "> 100 µM (inactive)"}]}
{"smiles": "Cc1ccc(NN2C(=O)C=C(c3ccc(Cl)cc3)C2=O)cc1", "values": [{"measurement": "inhibition", "setting": "[1]; at 50 µM", "result": 98, "unit": "%"}, {"measurement": "IC50", "setting": "[2]", "result": 9.53, "unit": "µM"}]}
{"smiles": "CCCCn1c(/N=C/c2c[nH]c3ccccc23)nc2ccccc21", "values": [{"measurement": "inhibition", "setting": "[1]; at 0.781 µM", "result": 7.75, "unit": "%"}, {"measurement": "IC50", "setting": "[2]", "result": "> 100 µM (inactive)"}]}
{"smiles": "CCOC(=O)c1c(N)sc(C(O)(C(F)(F)F)C(F)(F)F)c1-c1ccc(F)cc1", "values": [{"measurement": "inhibition", "setting": "[1]; at 0.098 µM", "result": 8.89, "unit": "%"}, {"measurement": "IC50", "setting": "[2]", "result": "> 100 µM (inactive)"}]}
{"smiles": "FC(F)Sc1ccc(Nc2ncnc3nc[nH]c23)cc1", "values": [{"measurement": "inhibition", "setting": "[1]; at 1.563 µM", "result": 11.9, "unit": "%"}, {"measurement": "IC50", "setting": "[2]", "result": "> 100 µM (inactive)"}]}
{"smiles": "CC1=NOC(=O)/C1=C\\c1ccc(-c2ccc(Cl)cc2Cl)o1", "values": [{"measurement": "inhibition", "setting": "[1]; at 50 µM", "result": 80.5, "unit": "%"}, {"measurement": "IC50", "setting": "[2]", "result": 32.3, "unit": "µM"}]}
